Experimental data as given in patent publication US4975451A, “Insecticidal cyclopropyl di(aryl) 2-butenes” (FMC Corporation, priority 1989, dated 1990).
Values after ≈ are worked out from the molar mass of the structure shown.

How the values were obtained:
pea aphid = experiment: Foliar evaluation, pea aphid; assay type: in vivo, Acryrthosiphon pisum; conditions: Acyrthosiphon pisum, 48 hours, read-out: % Kill PA; for mortality at 100 ppm: rate 100 ppm; for mortality at 500 ppm: rate 500 ppm
Protocol: (§1) The insecticidal activity of the pyrethroid-like compounds of this invention as identified in Table 1, appended, was evaluated as follows:
(§2) Compounds within the scope of this invention were tested by foliar application at various concentrations in aqueous solutions containing 10% (volume/volume) acetone and water. Insect species utilized included the cabbage looper (Trichoplusia ni), Mexican bean beetle (Epilachna varivestis), pea aphid (Acryrthosiphon pisum), tobacco budworm (Heliothis virescens) and twospotted spider mite (Tetranychus urticae).
(§3) For all insects except the pea aphid, pinto beans (Phaseolus vulgaris) plants were treated with the test solutions. The test solutions were applied with a sprayer to the upper and lower surfaces of the plant leaves to runoff. The plants were then allowed to dry and were severed at the base of the stem before being placed in cups. Ten second instar individuals of the appropriate insect species, except the tobacco budworm, were placed in each cup and the cup covered. Tests with the tobacco budworm used four replicates with each replicate containing five second instar tobacco budworms. In all tests, mortality was read 48 hours later.
In the case of the pea aphid, fava bean (Vicia faba) was substituted for pinto bean. The treated, potted plants were placed in cups infested with ten individuals and covered. Mortality was read 48 hours later.

twospotted spider mite = experiment: Foliar acaricidal test, twospotted spider mite (susceptible); assay type: in vivo; conditions: Tetranychus urticae, 48 hours, read-out: % Kill TSM-S; for mortality at 100 ppm: rate 100 ppm; for mortality at 500 ppm: rate 500 ppm
Protocol: as §1, §2
Acaricidal tests were performed using the following procedure: Leaves infested with adult twospotted spider mites (Tetranvchus urticae) were removed from culture plants and cut into segments containing 50-75 female mites. Each segment was placed on the upper leaf surface of a whole pinto bean plant. After the mites had migrated to the under surfaces of the leaves, the leaf segments used to infest were removed, and each plant was sprayed with test chemicals as described above. After the plants had dried, the entire plant and pot were placed in metal trays in a hood, a supply of water in the tray keeping the plants turgid. After 48 hours the living and dead mites were counted, and percent mortality was calculated.

Mexican bean beetle = experiment: Foliar evaluation, Mexican bean beetle; assay type: in vivo; conditions: Epilachna varivestis, 48 hours, read-out: % Kill MBB; for mortality at 100 ppm: rate 100 ppm
Protocol: as §1, §2, §3

cabbage looper = experiment: Foliar evaluation, cabbage looper; assay type: in vivo; conditions: Trichoplusia ni, 48 hours, read-out: % Kill CL; for mortality at 100 ppm: rate 100 ppm; for mortality at 500 ppm: rate 500 ppm
Protocol: as §1, §2, §3

tobacco budworm = experiment: Foliar evaluation, tobacco budworm; assay type: in vivo; conditions: Heliothis virescens, 48 hours, read-out: % Kill TBW; for mortality at 100 ppm: rate 100 ppm; for mortality at 500 ppm: rate 500 ppm
Protocol: as §1, §2, §3

Fish toxicity, tilapia = assay type: in vivo; conditions: water; Tilapia (Oreochromis niloticus), 48 hour test
Protocol: Compounds of the present invention were tested for toxicity to fish using one inch long tilapia (Oreochromis niloticus). Prior to the test the tilapia were acclimated for one week in an aquarium, during which time they were fed with a ration of rice bran and pelletized hog feed. The water in the aquarium was changed daily with distilled water.
Stock solutions of each of the test chemicals were prepared by dissolving the weighed technical material in acetone and adding distilled water to provide a 1% acetone in water solution.
The test solutions were prepared by diluting the appropriate amount of a stock solution to 25 mL with distilled water. The appropriate amount of stock solution was determined for the concentration required in a final volume of 800 mL of test solution. The test chemicals were tested in triplicate at concentrations ranging from 0.005 ppm to 20 ppm. The actual concentrations of the test chemicals needed to determine LC50 values were determined by fish toxicity-range of application studies prior to the LC50 test. Each 25 mL test chemical solution was added to a one liter aquarium containing 500 mL of 0.01% (v/v) ethylene glycol in water. The aquariums were shaken gently and then allowed to stand for one hour. After this time the tilapia were added by first placing five fish in a container with 275 mL of distilled water and then pouring the water and fish into each aquarium. The dead and live fish were counted after 24 and 48 hours. Any fish observed to be dead was removed from its aquarium immediately. Upon completion of the 48 hour test period, the lethal concentration of each compound tested that would give 50% mortality to the tilapia was determined.

southern corn rootworm = experiment: Soil evaluation, southern corn rootworm; assay type: in vivo, Diabrotica undecimounctata Howardi; conditions: rate 7.5 ppm, 48 hours, read-out: Initial % Kill SCR
Protocol: Soil evaluation of insecticidal activity of test compounds were conducted against the southern corn rootworm (Diabrotica undecimounctata Howardi). A 0.25 ml aliquot of a stock solution containing 64 mg of the candidate insecticide in 4.0 ml of acetone was pipetted into 41 mL of distilled water containing 0.1% octylphenoxypolyethoxyethanol emulsifier. […] In all cases, four mL of each test solution was pipetted into a 4 ounce specimen cup containing two two-day-old corn sprouts completely covered by 26 grams of dry sandy soil. The treated soil in each cup was allowed to stand uncovered in a hood to evaporate the acetone. Each cup was capped and the soil in each cup was mixed thoroughly. The cap of each cup was removed, and ten second instar southern corn rootworm larvae were added to each cup. The cups were each covered with lids perforated with two small holes to allow for ventilation. The cups were then held under fluorescent light (12 hours light: 12 hours dark) at 24°-26° C. for 48 hours. An untreated check and an appropriate standard were included in each test. Two replicates were run for each chemical treatment. The unaffected larvae from the soil of each cup were extracted by placing the contents of each cup into a modified Berlese polyethylene funnel fitted with an 18-mesh screen. The funnels were placed over containers of an aqueous detergent solution. Incandescent lights (100 watts) were placed 36 cm above the soil in each funnel. The heat from these lights slowly dried the soil causing larvae that had not been affected by the candidate insecticide to emerge from the soil and drop out of the funnel into the detergent solution. The percent mortality was determined by comparing the number of live larvae in the detergent solution with the total number of larvae infested during the initiation of the test. Percent mortality was determined in this manner for each concentration.

| SMILES | mortality at 100 ppm (pea aphid) [%] | mortality at 100 ppm (twospotted spider mite) [%] | mortality at 100 ppm (Mexican bean beetle) [%] | mortality at 100 ppm (tobacco budworm) [%] | LC50 at 48 h (Fish toxicity, tilapia) [µg/mL] | mortality at 100 ppm (cabbage looper) [%] | mortality at 7.5 ppm (southern corn rootworm) [%] | other results |
| --- | --- | --- | --- | --- | --- | --- | --- | --- |
| CCOc1ccc(C(C=CCc2cccc(-c3ccccc3)c2C)C2CC2)cc1 (stereo not shown) [Compound 9] | – | – | – | – | – | – | – | mortality at 1000 ppm (pea aphid; rate 1000 ppm): 100%; mortality at 1000 ppm (twospotted spider mite; rate 1000 ppm): 100%; mortality at 1000 ppm (Mexican bean beetle; rate 1000 ppm): 90%; mortality at 1000 ppm (cabbage looper; rate 1000 ppm): 100% |
| FC(F)(F)c1ccc(C(C=CCc2cccc(Oc3ccccc3)c2)C2CC2)cc1 (stereo not shown) [Compound 3] | 45 | 90 | 100 | 100 | 5 to 7.5 (≈ 12.2 to 18.4 µM) | 90 | 60 | – |
| CC1(C)C(C=C(Cl)Cl)C1C(=O)OC(C#N)c1cccc(Oc2ccccc2)c1 (stereo not shown) [cypermethrin, reference compound] | – | – | – | – | 0.02 (≈ 0.048 µM) | – | – | – |
| Cc1c(CC=CC(c2ccc(Cl)cc2)C2CC2)cccc1-c1ccccc1 (stereo not shown) [Compound 7] | – | – | – | – | – | – | 50 | mortality at 500 ppm (pea aphid): 60%; mortality at 500 ppm (twospotted spider mite): 7%; mortality at 500 ppm (Mexican bean beetle; rate 500 ppm): 100%; mortality at 500 ppm (tobacco budworm): 100%; mortality at 500 ppm (cabbage looper): 100% |
| Clc1ccc(C(C=CCc2cccc(Oc3ccccc3)c2)C2CC2)cc1 (stereo not shown) [Compound 1] | 75 | 2 | 100 | 100 | 3 to 5 (≈ 8 to 13.3 µM) | 100 | 45 | – |
| Fc1ccc(CC=CC(c2ccc(Cl)cc2)C2CC2)cc1Oc1ccccc1 (stereo not shown) [Compound 2, 1-cyclopropyl-1-(4-chlorophenyl)-4-(4-fluoro-3-phenoxyphenyl)-2-butene] | 80 | 0 | 100 | 100 | 7.5 to 10 (≈ 19.1 to 25.5 µM) | 100 | 45 | – |
| Fc1ccc(CC=CC(c2ccc(OC(F)(F)F)cc2)C2CC2)cc1Oc1ccccc1 (stereo not shown) [Compound 6, 1-cyclopropyl-1-(4-trifluoromethoxyphenyl)-4-(4-fluoro-3-phenoxyphenyl)-2-butene] | 85 | 99 | 100 | 100 | 9 (≈ 20.3 µM) | 100 | 70 | – |
| FC(F)(F)Oc1ccc(C(C=CCc2cccc(Oc3ccccc3)c2)C2CC2)cc1 (stereo not shown) [Compound 5] | 100 | 100 | 100 | 80 | 1 to 3 (≈ 2.36 to 7.07 µM) | 85 | 50 | – |
| Fc1ccc(CC=CC(c2ccc(C(F)(F)F)cc2)C2CC2)cc1Oc1ccccc1 (stereo not shown) [Compound 4] | 90 | 90 | 100 | 100 | – | 100 | – | – |
| Cc1c(CC=CC(c2ccc(OCC3CC3)cc2)C2CC2)cccc1-c1ccccc1 (stereo not shown) [Compound 8] | – | – | – | – | – | – | – | mortality at 500 ppm (pea aphid): 5%; mortality at 500 ppm (twospotted spider mite): 0%; mortality at 500 ppm (tobacco budworm): 22%; mortality at 500 ppm (cabbage looper): 100% |
